Data reported in doi:10.1101/2021.12.13.472350v1, “An amphipathic and cationic antimicrobial peptide kills colistin resistant Gram-negative pathogens in vivo” (bioRxiv, 2021).
Converted amounts (≈) assume the structure as drawn. Marks after values point to notes of the source that are not given here. Peptide text beside a SMILES is read from it.

Tests used:
[1] = test system: Acinetobacter baumannii AB167R; conditions: AB167 lpxC::ISAba1, LPS deficient, MHB-II, 37°C, ~5×10^5 CFU/ml, triplicate
[2] = test system: Pseudomonas aeruginosa Q5
[3] = test system: Eschericia coli BW25113 pACYC184; conditions: BW25113 with pACYC184; MHB-II, 37°C, ~5×10^5 CFU/ml, triplicate
[4] = test system: Pseudomonas aeruginosa SNRC (PAO1 background); conditions: colistin resistance evolved laboratory isolate, MHB-II, 37°C, ~5×10^5 CFU/ml, triplicate
E. coli ATCC 25922 [5] = assay: In vivo sepsis/peritonitis mouse infection model; conditions: NMRI mice infected IP; 10 mg/ml colistin as printed, IP at 1 and 3 h post infection
[6] = test system: Klebsiella pneumoniae ATCC 700603; conditions: ATCC 700603, SHV-18, mucoid; MHB-II, 37°C, ~5×10^5 CFU/ml, triplicate
[7] = test system: Klebsiella pneumoniae ATCC 13883; conditions: ATCC 13883
[8] = test system: Eschericia coli ATCC 25922; type: cell-based
Eschericia coli ST131 = conditions: ST131, ESBL CTX-M-15; MHB-II, 37°C, ~5×10^5 CFU/ml, triplicate
[9] = test system: Klebsiella pneumoniae ST512; conditions: ST512, KPC-3, ΔmgrB, L-Ara4N modified, mucoid; MHB-II, 37°C, ~5×10^5 CFU/ml, triplicate
[10] = test system: Pseudomonas aeruginosa PAO1
[11] = test system: Pseudomonas aeruginosa ATCC 27853
[12] = test system: Acinetobacter baumannii CS01
E. coli ESBL20150072 = assay: In vivo sepsis/peritonitis mouse infection model; conditions: NMRI mice infected IP
Description: Outbred female NMRI mice (NMRI; weight 26–30 g; Taconic, Denmark) were used throughout the study, as previously described ([69], [70]). […] Colistin is recommended at a dose of 5-10 mg/kg, according to the European Medicines Agency (EMA) ([71]). The animals were kept in Macrolon type III cages in groups of six and allowed free access to feed and water. Experiments were initiated after an acclimatization period of 7 days. Inoculation (bacterial infection) was performed by intraperitoneal (IP) injection of 0.5 ml bacterial suspension containing 2×10^7 CFU/ml and 5% (wt/vol) mucin (Sigma-Aldrich). During experiments, groups of eight mice per cage constituting one experimental unit were randomly assigned to treatment (5 mg/kg ChIP and 10 mg/kg ChIP or colistin 10 mg/kg and 24 mg/kg) or no treatment (vehicle). Peptide and colistin was administered as a single bolus injection IP (volume injected 0.2 ml) at 1 hours and again 3. At various times post-infection, ∼200 µL blood from the jaw/cheek was collected in Eppendorf tubes with anti-coagulate (Sarstedt, Nümbrecht, Germany). Peritoneal lavage was performed by injecting 2.0 ml of sterile physiological saline IP. After 1 minute of abdominal massage, the peritoneum was opened and peritoneal lavage fluid (PLF) withdrawn. PLF was immediately placed in an insulated 4 °C cooling box for transportation and kept on ice at 4 °C. The mouse peritonitis model was repeated in duplicates for E. coli ATCC 25922 and A. baumannii ATCC 19606 nad in triplicate for E. coli ESBL20150072, while only a single experiment was carried out on A. baumannii CR17. Animals were sacrificed at various times prior to and following infection. Data from repeated experiments were pooled for analyses. Quantification of bacterial load was performed by spot plating of blood and peritoneal fluid samples from the mice. Dilution series were made in sterile 0.9% NaCl solution, from which 20 μl was spotted on solid lactose agar plates (Bromthymole Blue plates, SSI Diagnostica). Bacterial counts were recorded after overnight incubation at 37 °C in ambient air. The detection limit was 50 CFU/ml. The clinical condition of the mice was determined using a self-developed clinical score. For this score, mouse behavior and appearance were observed and evaluated for the parameters piloerection, attitude, locomotion, breathing and curiosity and awarded a score from 0 to 5 by a blinded observer. 0 = no clinical signs, 1 = slightly ruffled fur, 2 = ruffled fur and strenuous breathing, 3 = 2 plus lethargy, 4 = 3 plus hunched posture and decreased activity, and 5 = moribund. No significant difference in the clinical score between groups was observed 2 and 4 h post treatment. All mice were recorded for score 2.

[13] = test system: Acinetobacter baumannii RC64; conditions: RC64, ATCC 19606 pmrB::R134C pmrB::A227V; MHB-II, 37°C, ~5×10^5 CFU/ml, triplicate
E. coli ATCC 25922 [14] = assay: Time kill experiments; type: cell-based; conditions: detection limit 50 CFU
Eschericia coli ML-35p = conditions: LacI- LacY- LacZ+, MHB-II, 37°C, ~5×10^5 CFU/ml, triplicate
[15] = test system: Acinetobacter baumannii CR17; conditions: CR17, CS01 pmrA::M12K; MHB-II, 37°C, ~5×10^5 CFU/ml, triplicate
[16] = test system: Acinetobacter baumannii AB176
[17] = test system: Acinetobacter baumannii ATCC 19606; conditions: ATCC 19606
[18] = test system: Acinetobacter baumannii AB176R; conditions: AB176 lpxD::G739T (ΔlpxD), LPS deficient, MHB-II, 37°C, ~5×10^5 CFU/ml, triplicate
[19] = test system: Acinetobacter baumannii AB167
A. baumannii ATCC 19606 = assay: In vivo sepsis/peritonitis mouse infection model; conditions: NMRI mice infected IP, 10 mg/kg IP at 1 and 3 h

CC[C@H](C)CCCCC(=O)N[C@@H](CCN)C(=O)N[C@H](C(=O)N[C@@H](CCN)C(=O)N[C@H]1CCNC(=O)[C@H]([C@@H](C)O)NC(=O)[C@H](CCN)NC(=O)[C@H](CCN)NC(=O)[C@H](CC(C)C)NC(=O)[C@@H](CC(C)C)NC(=O)[C@H](CCN)NC1=O)[C@@H](C)O [Colistin, colistin] (HELM PEPTIDE1{[CC[C@H](C)CCCCC(=O)[*:2]].[Dab].T.[Dab].[Dab].[Dab].[dL].L.[Dab].[Dab].T}$PEPTIDE1,PEPTIDE1,5:R3-11:R2$$$V2.0; N-terminus assumed; bridges inferred)
MIC [1]: >256 µg/mL | MIC [2]: >256 µg/mL | MIC [3]: 0.5 µg/mL (≈ 0.428 µM) | MIC [4]: >256 µg/mL | peritoneal bacterial titers compared with ChIP 5 mg/kg (2 logs reduction, 1-5×10^5 CFU/ml) (E. coli ATCC 25922 [5]): similar | MIC [6]: 2 µg/mL (≈ 1.71 µM) | MIC (Eschericia coli MG1655): 0.25 µg/mL (≈ 0.214 µM) | MIC [7]: 0.5 µg/mL (≈ 0.428 µM) | MIC [8]: 0.125-0.25* μg/ml | MIC (Eschericia coli ST131): 1 µg/mL (≈ 0.855 µM) | MIC [9]: 128 µg/mL (≈ 109 µM) | MIC [10]: 0.5 µg/mL (≈ 0.428 µM) | MIC [11]: 1 µg/mL (≈ 0.855 µM) | MIC [12]: 0.5 µg/mL (≈ 0.428 µM) | effect on peritoneal titers (E. coli ESBL20150072; 24 mg/kg IP at 1 and 3 h, mcr-1 genotype): no effect | bacterial blood stream titers (E. coli ESBL20150072; colistin 24 mg/kg, similar to vehicle control): ~1×10^6 CFU/ml | MIC [13]: 64 µg/mL (≈ 54.7 µM) | cell viability after treatment (E. coli ATCC 25922 [14]; 1xMIC): reduction in CFU to the detection limit | cell viability after treatment (E. coli ATCC 25922 [14]; 3xMIC, over the first 5 hours): reduction in CFU to the detection limit | MIC (Eschericia coli ML-35p): 0.25 µg/mL (≈ 0.214 µM) | MIC (Eschericia coli AMA 817): 0.125 µg/mL (≈ 0.107 µM) | MIC [15]: >256 µg/mL | MIC [16]: 0.5 µg/mL (≈ 0.428 µM) | MIC [17]: 0.5 µg/mL (≈ 0.428 µM) | MIC (P. aeruginosa B3-CFI): >256 µg/mL | MIC [18]: >256 µg/mL | MIC [19]: 0.5 µg/mL (≈ 0.428 µM) | reduction of peritoneal bacterial titers relative to saline control (A. baumannii ATCC 19606; after 5 hours): 3-4 log | peritoneal bacterial titers (A. baumannii ATCC 19606; after 5 hours, saline control around 1×10^8 CFU/ml): 1×10^3-1×10^4 CFU/ml | bacterial blood titers (A. baumannii ATCC 19606; detection limit 50 CFU/ml): reduce CFU/ml to the detection limit
